Data set [1] is described as follows: Activity of gel-based therapeutics after short-term storage. The following applies: 0.5% (agarose) hydrogel. It is filed as physicochemical. From the text:
According to Table 1, gel-therapeutic agent preparations comprising an antibiotic and a 0.5% (agarose) hydrogel may be stable for up to one week. Drugs dissolve passively into the gel and stay stable over time. In some embodiments, the gel-therapeutic agent preparation may further comprise saline. The gel may be biocompatible, meaning that it is structurally similar to the extracellular matrix in tissues. The gel may be flowable, allowing, for example, casting into a mold or injection via needle through a port. The loading of the […] agent preparation in the device may allow consistent and uniform contact with the skin even with patient movement, maintaining continuous delivery of the therapeutic agent to the underlying tissue. The gel-therapeutic agent preparation may prevent loss of the therapeutic agent in the event of a minor leak in the adhesive of the sealing portion of the device.

The subject of a further data set is common bacteria. The conditions noted are these: typical value; cited from earlier work.

Regarding Gentamicin, the Drug activity in data set [1] (after 3 days storage) turned out to be 2.41 µg/mL; in data set [1] (after 7 days storage), 2.04 µg/mL. Further, the MIC result in the data set on common bacteria was “around 2 micrograms per mL or cm^3”.
Turning to `CN[C@H](CC(C)C)C(=O)N[C@H]1C(=O)N[C@@H](CC(N)=O)C(=O)N[C@H]2C(=O)N[C@H]3C(=O)N[C@H](C(=O)N[C@H](C(=O)O)c4cc(O)cc(O)c4-c4cc3ccc4O)[C@H](O)c3ccc(c(Cl)c3)Oc3cc2cc(c3O[C@@H]2O[C@H](CO)[C@@H](O)[C@H](O)[C@H]2O[C@H]2C[C@](C)(N)[C@H](O)[C@H](C)O2)Oc2ccc(cc2Cl)[C@H]1O` [vancomycin], the MIC entry in the data set with common bacteria is reported as “around 2 micrograms per mL or cm^3”.

(Values after patent publication US20230079448A1, “DEVICES AND METHODS FOR NEGATIVE PRESSURE THERAPY” (APPLIED TISSUE TECHNOLOGIES LLC, priority 2020, published 2023).)
